In patent US20040162263A1, “Pharmaceutical formulations targeting specific regions of the gastrointesinal tract” (priority 2002, published 2004):

Assay: Pharmacokinetics of 9-nitro-camptothecin (9NC) in IVAP beagle dog model
Format: in vivo, beagle dogs
Experimental: Blood samples were taken systemic and from the portal vein through a sampling/delivery vascular port previously implanted, then plasma was separated by centrifugation and kept frozen at −80° C. until analysis.
The samples were analyzed in a Perkin Elmer liquid chromatography-tandem mass spectrometer system with a PE LC-200 Micro pump, a PE200 Autosampler and a PE Sciex API 365 mass spectrometry unit.
Adult male beagle dogs (between the ages of 1 and 5 years and weighed between 9 and 16 kg) were obtained from Summit Ridge Farms, Susquehanna, Pa. The IVAP dogs were prepared by using a protocol similar to the one used for pentostatin experiments described above.
On the morning of the test, each animal is weighed and placed in the sling. An IV catheter is installed in the brachial vein for systemic blood sampling with a multiuse vacutainer needle adapter. This is flushed with heparinized saline (50 units/ml) to maintain potency between sampling. When necessary, a 20 g or 22 g right-angled Huber infusion set would be placed in the PV port and attached to a three-way stopcock for PV blood sampling.
The preparation of the dose depends on the route of study. In case of IV and PV administration, the drug was dissolved in dimethylacetamide (DMA) at 5 mg/ml and 0.5 ml of the DMA concentrate filtered through a […] filter into 4.5 ml of diluent (51% PEG-400 49% 0.001 M H3PO4) prior to administration to the brachial or portal vein. In the case of all other infusions, as well as oral administration, the drug was dissolved in vegetable oil to a concentration of 1 mg/ml and drawn up into dosing syringes. Animals were dosed IV at 0.1 and 0.2 mg/kg and 0.2 mg/kg for all the other routes of administration tested.
In intravascular studies, the dose is administered via a second catheter and the entire volume is delivered within 45 seconds.
In portal vein studies, the dose is also administered via an additional catheter over a 30 min time period.
In the case of oral dosages, the dose is delivered to the back of the mouth with an appropriate size syringe and is followed with 5 ml of tap water to assist swallowing and clearance of the dose from the mouth. Capsules were administered similarly by placing them at the back of the mouth and giving around 5 ml of water to facilitate swallowing.
For all other tests, the dosage is infused into the appropriate intestinal port and flushed with 2-3 ml of sterile saline. The dead space volume of the ports and tubing vary slightly between individuals, but are generally less than 0.5 ml total. […]
Systemic blood samples allow the calculation of AUC0-inf after oral capsule administration only and portal vein AUC for all the routes of administration.

[1] = 9-NC 0.2 mg/kg COLON port, 0.17 hr
[2] = 9-NC 0.2 mg/kg ileum port, 0.17 hr
[3] = 9-NC 0.2 mg/kg jejunal port, 0.17 hr
[4] = portal vein samples, 9-NC via COLON port
[5] = portal vein samples, 9-NC via ILEUM port
[6] = portal vein samples, 9-NC via JEJUNUM port
[7] = systemic samples, 9-NC via COLON port
[8] = systemic samples, 9-NC via ILEUM port
[9] = systemic samples, 9-NC via JEJUNUM port

Question: Which results are given for CC[C@@]1(O)C(=O)OCc2c1cc1n(c2=O)Cc2cc3c([N+](=O)[O-])cccc3nc2-1 [9-NC, 9-nitro-20(S)-camptothecin]?
Answer: Mean plasma concentration, Portal Vein [1]: 0.53 ± 0.05 ng/mL; Mean plasma concentration, Systemic [1]: 0.117 ng/mL; Mean plasma concentration, Portal Vein [2]: 0.44 ± 0.10 ng/mL; Mean plasma concentration, Systemic [2]: 0.11 ± 0.01 ng/mL; Mean plasma concentration, Portal Vein [3]: 0.54 ± 0.22 ng/mL; Mean plasma concentration, Systemic [3]: BQL; Mean plasma concentration, Portal Vein (COLON port, 0.5 hr): 0.37 ± 0.12 ng/mL; Mean plasma concentration, Systemic (COLON port, 0.5 hr): 0.1 ng/mL; Mean plasma concentration, Portal Vein (COLON port, 1 hr): 0.37 ± 0.15 ng/mL; Mean plasma concentration, Systemic (COLON port, 1 hr): 0.114 ng/mL; Mean plasma concentration, Systemic (COLON port, 1.5 hr): BQL; Mean plasma concentration, Portal Vein (COLON port, 2 hr): 0.16 ± 0.05 ng/mL; Mean plasma concentration, Systemic (COLON port, 2 hr): 0.134 ng/mL; Mean plasma concentration, Systemic (COLON port, 4 hr): BQL; Mean plasma concentration, Systemic (COLON port, 6 hr): BQL; Mean plasma concentration, Systemic (COLON port, 8 hr): BQL; Mean plasma concentration, Systemic (COLON port, 12 hr): BQL; Mean plasma concentration, Systemic (COLON port, 24 hr): 0.11 ng/mL; clearance (IV 0.1 mg/kg): 29.3 ± 3.17 mL/min/kg; half-life (IV 0.1 mg/kg, systemic): 0.88 ± 0.45 h; clearance (IV 0.2 mg/kg): 28.8 ± 13 mL/min/kg; Bioavailability (high iv dose) (Intracolon): 0.1 ± 0.1%; Bioavailability (low iv dose) (Intracolon): 0.1 ± 0.1%; Bioavailability, Average (Intracolon): 0.1%; Mean AUC0-inf of 9-NC, Portal Vein AUC (Intracolon 0.2 mg/kg): 1.48 ± 0.29 ng·h/mL; Mean AUC0-inf of 9-NC, Systemic AUC (Intracolon 0.2 mg/kg): 0.07 ± 0.06 ng·h/mL; Bioavailability (high iv dose) (Intraileum): 1.6 ± 1.1%; Bioavailability (low iv dose) (Intraileum): 1.6 ± 1.2%; Bioavailability, Average (Intraileum): 1.6%; Mean AUC0-inf of 9-NC, Portal Vein AUC (Intraileum 0.2 mg/kg): 1.76 ± 0.95 ng·h/mL; Mean AUC0-inf of 9-NC, Systemic AUC (Intraileum 0.2 mg/kg): 1.65 ± 1.15 ng·h/mL; Bioavailability (high iv dose) (Intrajejunal): 3.0 ± 3.2%; Bioavailability (low iv dose) (Intrajejunal): 3.0 ± 3.2%; Bioavailability, Average (Intrajejunal): 3.2%; Mean AUC0-inf of 9-NC, Portal Vein AUC (Intrajejunal 0.2 mg/kg): 4.46 ± 4.00 ng·h/mL; Mean AUC0-inf of 9-NC, Systemic AUC (Intrajejunal 0.2 mg/kg): 1.03 ± 1.34 ng·h/mL; Mean AUC0-inf of 9-NC, Portal Vein AUC (Intravenous - High (0.2 mg/kg)): 93.61 ± 17.02 ng·h/mL; Mean AUC0-inf of 9-NC, Systemic AUC (Intravenous - High (0.2 mg/kg)): 118.33 ± 21.82 ng·h/mL; Mean AUC0-inf of 9-NC, Portal Vein AUC (Intravenous - Low (0.1 mg/kg)): 45.05 ± 4.08 ng·h/mL; Mean AUC0-inf of 9-NC, Systemic AUC (Intravenous - Low (0.1 mg/kg)): 57.25 ± 5.84 ng·h/mL; Bioavailability (high iv dose) (Oral - capsule): 4.1 ± 3.8%; Bioavailability (low iv dose) (Oral - capsule): 4.2 ± 4.0%; Bioavailability, Average (Oral - capsule): 4.1%; Mean AUC0-inf of 9-NC, Portal Vein AUC (Oral - capsule 0.2 mg/kg): 11.48 ± 1.50 ng·h/mL; Mean AUC0-inf of 9-NC, Systemic AUC (Oral - capsule 0.2 mg/kg): 4.75 ± 4.61 ng·h/mL; Bioavailability (high iv dose) (Oral - suspension): 0.4 ± 0.6%; Bioavailability (low iv dose) (Oral - suspension): 0.4 ± 0.6%; Bioavailability, Average (Oral - suspension): 0.4%; Mean AUC0-inf of 9-NC, Portal Vein AUC (Oral - suspension 0.2 mg/kg): 11.97 ± 9.88 ng·h/mL; Mean AUC0-inf of 9-NC, Systemic AUC (Oral - suspension 0.2 mg/kg): 0.48 ± 0.53 ng·h/mL; Bioavailability (high iv dose) (Portal vein): 5.2 ± 0.8%; Bioavailability (low iv dose) (Portal vein): 5.4 ± 1.4%; Mean AUC0-inf of 9-NC, Systemic AUC (Portal vein infusion 0.2 mg/kg): 6.24 ± 2.11 ng·h/mL; Mean plasma concentration, Portal Vein (ileum port, 0.5 hr): 0.56 ± 0.32 ng/mL; Mean plasma concentration, Systemic (ileum port, 0.5 hr): 0.12 ng/mL; Mean plasma concentration, Portal Vein (ileum port, 1 hr): 0.22 ± 0.03 ng/mL; Mean plasma concentration, Systemic (ileum port, 1 hr): BQL; Mean plasma concentration, Portal Vein (ileum port, 1.5 hr): 0.34 ± 0.29 ng/mL; Mean plasma concentration, Systemic (ileum port, 1.5 hr): 0.13 ± 0.04 ng/mL; Mean plasma concentration, Portal Vein (ileum port, 2 hr): 0.13 ± 0.02 ng/mL; Mean plasma concentration, Systemic (ileum port, 2 hr): 0.10 ± 0.00 ng/mL; Mean plasma concentration, Portal Vein (ileum port, 3 hr): 0.12 ± 0.00 ng/mL; Mean plasma concentration, Systemic (ileum port, 3 hr): 0.17 ng/mL; Mean plasma concentration, Portal Vein (ileum port, 4 hr): BQL; Mean plasma concentration, Systemic (ileum port, 4 hr): 0.13 ng/mL; Mean plasma concentration, Portal Vein (ileum port, 6 hr): 0.10 ng/mL; Mean plasma concentration, Systemic (ileum port, 6 hr): BQL; Mean plasma concentration, Systemic (ileum port, 8 hr): 0.14 ng/mL; Mean plasma concentration, Systemic (ileum port, 12 hr): 0.14 ± 0.02 ng/mL; Mean plasma concentration, Systemic (ileum port, 24 hr): 0.13 ng/mL; Mean plasma concentration, Portal Vein (jejunal port, 0.5 hr): 0.41 ± 0.00 ng/mL; Mean plasma concentration, Systemic (jejunal port, 0.5 hr): 0.14 ng/mL; Mean plasma concentration, Portal Vein (jejunal port, 1 hr): 0.56 ± 0.47 ng/mL; Mean plasma concentration, Systemic (jejunal port, 1 hr): 0.15 ng/mL; Mean plasma concentration, Portal Vein (jejunal port, 2 hr): 0.37 ± 0.10 ng/mL; Mean plasma concentration, Systemic (jejunal port, 2 hr): 0.14 ng/mL; Mean plasma concentration, Portal Vein (jejunal port, 3 hr): 0.41 ng/mL; Mean plasma concentration, Systemic (jejunal port, 3 hr): 0.15 ng/mL; Mean plasma concentration, Portal Vein (jejunal port, 4 hr): BLOQ; Mean plasma concentration, Systemic (jejunal port, 4 hr): BQL; Mean plasma concentration, Portal Vein (jejunal port, 6 hr): BLOQ; Mean plasma concentration, Systemic (jejunal port, 6 hr): BQL; Mean plasma concentration, Portal Vein (jejunal port, 8 hr): BLOQ; Mean plasma concentration, Systemic (jejunal port, 8 hr): 1.36 ± 1.73 ng/mL; Mean plasma concentration, Systemic (jejunal port, 10 hr): BQL; Mean plasma concentration, Portal Vein (jejunal port, 12 hr): 0.15 ng/mL; Mean plasma concentration, Systemic (jejunal port, 12 hr): BQL; Mean plasma concentration, Portal Vein (jejunal port, 24 hr): BLOQ; Mean plasma concentration, Systemic (jejunal port, 24 hr): BQL; AUC0-INF (portal vein samples, 0.2 mg/kg 9-NC via COLON port): 1.48 ± 0.29 ng·h/mL; AUC0-INF (portal vein samples, 0.2 mg/kg 9-NC via ILEUM port): 1.76 ± 0.95 ng·h/mL; AUC0-INF (portal vein samples, 0.2 mg/kg 9-NC via JEJUNUM port): 4.46 ± 4.00 ng·h/mL; AUCLast [4]: 0.73 ± 0.63 ng·h/mL; CMAX [4]: 0.79 ± 0.61 ng/mL; MRT [4]: 2.21 ± 1.46 h; TMAX [4]: 1.67 ± 0.29 h; AUCLast [5]: 0.87 ± 0.11 ng·h/mL; CMAX [5]: 0.65 ± 0.20 ng/mL; MRT [5]: 8.65 ± 1.62 h; T1/2 [5]: 6.10 ± 7.50 h; TMAX [5]: 0.34 ± 0.23 h; AUCLast [6]: 0.85 ± 0.55 ng·h/mL; CMAX [6]: 0.66 ± 0.24 ng/mL; MRT [6]: 15.12 ± 1.62 h; T1/2 [6]: 7.59 ± 3.14 h; TMAX [6]: 0.56 ± 0.42 h; AUC0-INF (systemic samples, 0.2 mg/kg 9-NC via JEJUNUM port): 6.66 ng·h/mL; AUCLast [7]: 0.07 ± 0.06 ng·h/mL; CMAX [7]: 0.08 ± 0.07 ng/mL; F [7]: 0.1 ± 0.1%; TMAX [7]: 0.72 ± 1.11 h; AUCLast [8]: 1.65 ± 1.15 ng·h/mL; CMAX [8]: 0.17 ± 0.01 ng/mL; Cl/F [8]: 85.5 mL/min/kg; F [8]: 1.6 ± 1.2%; TMAX [8]: 2.25 ± 1.06 h; Vz [8]: 1441 L/kg; AUCLast [9]: 1.03 ± 1.34 ng·h/mL; CMAX [9]: 0.96 ± 1.40 ng/mL; Cl/F [9]: 500 mL/min/kg; F [9]: 3.0 ± 3.2%; MRT [9]: 54.11 h; TMAX [9]: 4.00 ± 3.61 h; Vz [9]: 1469 L/kg
